Experimental data: patent publication US20060205743A1, “Protein kinase inhibitors” (priority 2003, published 2006)

Biological target: MAPKAP-K2 (Homo sapiens, UniProt P49137)
Assay: MAPKAP-Kinase 2 Assay (33P-ATP peptide phosphorylation, filter plate)
Assay type: biochemical
Set-up: key: +: active; ++: more active; +++: very active
Settings: assays conducted at typically 1-100 μM
Method: MAPKAP-Kinase 2 Assay [Compound Preparation]
Compounds are dissolved in DMSO at a concentration of 3 mM and stored in aliquots at −20° C. Compounds in DMSO from these stock aliquots are diluted in 30% DMSO to produce initial working stock solutions of 1 mM and 3 mM. Both of these stock solutions are then subjected to 1:10 serial dilutions in 30% DMSO in order to prepare 3000, 1000, 300, 100, 30, 10, 3, 1, 0.1, 0.01 μM stock solutions. 5 μl of each stock solution is used per 50 μl reaction to give final assay concentrations of 300, 100, 30, 10, 3, 1, 0.3, 0.1, 0.01, 0.001 μM.
The kinase reaction is conducted in a round-bottomed polypropylene 96-well plate. MAPKAP-K2 is diluted to 25 mU/μl in diluent buffer (50 mM Tris/HCl. pH7.5, 0.1 mM EGTA, 0.1% (v/v) β-mercaptoethanol, 1 mg/ml BSA). 5 μl compound or 30% DMSO is added to each well followed by 25 μl substrate cocktail (10 μM ATP, 30 μM peptide (KKLNRTLSVA), 0.5 μCi ^33P-γ-ATP in 50 mM Tris pH7.5, 0.1 mM EGTA, 10 mM Mg-acetate, 0.1% BME). The reaction is initiated with the addition of 20 μl enzyme solution per well or 20 μl diluent buffer without enzyme. The plate is shaken for 10 sec and then left at room temperature for 30 min. The reaction is terminated with 50 μl 150 mM phosphoric acid. 90 μl of the reaction mixture is then transferred into a 96-well P81 filter plate (Millipore) and incubated at room temperature for 5 min. The filter plate is then washed 4 times with 200 μl 75 mM phosphoric acid per well on a plate vacuum manifold (Millipore) and dried in an oven for 2-3 h. Packard MicroScint ‘0’ (30 μl) is then added to each well, the plate is mixed for 30 min and subjected to liquid scintillation counting on a Packard TopCount.
[Interpretation] %Control=(X−B)/(Tot−B)×100 %Inhibition=100−% Control X=cpm of the test compound wells B=cpm of wells without enzyme Tot=cpm of wells with DMSO vehicle only

Chain of MAPKAP-K2 (P49137 whole entry): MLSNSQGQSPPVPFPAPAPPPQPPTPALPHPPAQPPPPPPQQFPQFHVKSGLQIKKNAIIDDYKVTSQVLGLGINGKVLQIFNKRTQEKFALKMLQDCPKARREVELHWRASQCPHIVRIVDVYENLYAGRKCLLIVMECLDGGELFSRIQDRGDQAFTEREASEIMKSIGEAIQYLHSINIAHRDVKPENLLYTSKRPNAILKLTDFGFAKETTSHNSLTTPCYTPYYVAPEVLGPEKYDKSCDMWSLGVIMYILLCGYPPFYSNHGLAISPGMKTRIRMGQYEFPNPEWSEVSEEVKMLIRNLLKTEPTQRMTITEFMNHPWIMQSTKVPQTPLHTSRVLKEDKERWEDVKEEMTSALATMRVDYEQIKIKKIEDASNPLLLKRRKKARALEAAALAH

Structure (SMILES) | MAPKAP-K2 activity
Fc1ccc(Nc2cc(NC3CCNC3)nc3ccnn23)cc1Cl (stereo not drawn) [Compound 73] | ++
Fc1ccc(Nc2cc(NC3CCCNC3)nc3ccnn23)cc1Cl (stereo not drawn) [Compound 74] | +++
NCCCCNc1cc(Nc2ccc(F)c(Cl)c2)n2nccc2n1 [Compound 78] | +
CN(CCN)c1cc(Nc2ccc(F)c(Cl)c2)n2nccc2n1 [Compound 80] | +
Fc1ccc(Nc2cc(N3CCNCC3)nc3ccnn23)cc1Cl [Compound 81] | +
NC1CCN(c2cc(Nc3ccc(F)c(Cl)c3)n3nccc3n2)C1 (stereo not drawn) [Compound 82] | +
CNCCNc1cc(Nc2ccc(F)c(Cl)c2)n2nccc2n1 [Compound 86] | ++
NCCCNc1cc(Nc2ccc(F)c(Cl)c2)n2nccc2n1 [Compound 94] | +
NC1CCN(c2cc(Nc3ccc(F)c(Cl)c3)n3nccc3n2)CC1 [Compound 95] | +
COc1ccccc1Nc1cc(NC2CCCNC2)nc2ccnn12 (stereo not drawn) [Compound 96] | ++
COc1cccc(Nc2cc(NC3CCCNC3)nc3ccnn23)c1 (stereo not drawn) [Compound 97] | +++
c1ccc(COc2cccc(Nc3cc(NC4CCCNC4)nc4ccnn34)c2)cc1 (stereo not drawn) [Compound 98] | +++
CCOc1cccc(Nc2cc(NC3CCCNC3)nc3ccnn23)c1 (stereo not drawn) [Compound 105] | +++
Ic1ccc(Nc2cc(NC3CCCNC3)nc3ccnn23)cc1 (stereo not drawn) [Compound 106] | +++
CC(C)=CCCC(C)=CCNc1cc(NC2CCC(N)CC2)nc2ccnn12 (stereo not drawn) [Compound 115] | +++
NCCNc1cc(Nc2ccc(F)c(Cl)c2)n2nccc2n1 [Compound 116] | +
Fc1ccc(Nc2cc(NC3CCC(NCc4ccccc4)CC3)nc3ccnn23)cc1Cl (stereo not drawn) [Compound 120] | +
Fc1ccc(Nc2cc(NC3CCC(NCCc4ccccc4)CC3)nc3ccnn23)cc1Cl (stereo not drawn) [Compound 121] | ++
Fc1ccc(Nc2cc(NC3CCC(NCCCc4ccccc4)CC3)nc3ccnn23)cc1Cl (stereo not drawn) [Compound 124] | ++
Fc1ccc(Nc2cc(NC3CCC(NCC4CCCCC4)CC3)nc3ccnn23)cc1Cl (stereo not drawn) [Compound 126] | +
Fc1ccc(Nc2cc(NC3CCC(NCc4ccoc4)CC3)nc3ccnn23)cc1Cl (stereo not drawn) [Compound 128] | ++
CCC(CC)CNC1CCC(Nc2cc(Nc3ccc(F)c(Cl)c3)n3nccc3n2)CC1 (stereo not drawn) [Compound 130] | +
Fc1ccc(Nc2cc(NC3CCC(NCCCCc4ccccc4)CC3)nc3ccnn23)cc1Cl (stereo not drawn) [Compound 131] | ++
Fc1ccc(Nc2cc(NC3CCC(NCCCCCc4ccccc4)CC3)nc3ccnn23)cc1Cl (stereo not drawn) [Compound 132] | ++
CN1CCC(N[C@H]2CC[C@H](Nc3cc(Nc4ccc(F)c(Cl)c4)n4nccc4n3)CC2)CC1 [Compound 136] | +++
Fc1ccc(Nc2cc(N[C@H]3CC[C@H](NC4CCC(c5ccccc5)CC4)CC3)nc3ccnn23)cc1Cl (stereo partly drawn) [Compound 138] | +
CCOc1ccc(Nc2cc(NC3CCCNC3)nc3ccnn23)cc1 (stereo not drawn) [Compound 139] | +++
Ic1cccc(Nc2cc(NC3CCCNC3)nc3ccnn23)c1 (stereo not drawn) [Compound 140] | +++

More lines, now with the values ahead:

MAPKAP-K2 activity | Structure (SMILES)
+++ | Cc1ccc(C)c(Nc2cc(N[C@H]3CC[C@H](N)CC3)nc3ccnn23)c1 [Compound 75]
+++ | Cc1cccc(Nc2cc(N[C@H]3CC[C@H](N)CC3)nc3ccnn23)c1C [Compound 76]
+++ | Cc1ccc(Nc2cc(N[C@H]3CC[C@H](N)CC3)nc3ccnn23)cc1C [Compound 77]
++ | N#C/N=C(\N)NC1CCC(Nc2cc(Nc3ccc(F)c(Cl)c3)n3nccc3n2)CC1 (stereo not drawn) [Compound 79]
+++ | N[C@H]1CC[C@H](Nc2cc(Nc3cccc(Br)c3)n3nccc3n2)CC1 [Compound 83]
+++ | NC1CCC(Nc2cc(Nc3ccc(Br)cc3)n3nccc3n2)CC1 (stereo not drawn) [Compound 84]
+++ | NC1CCC(Nc2cc(Nc3ccc(I)cc3)n3nccc3n2)CC1 (stereo not drawn) [Compound 85]
+++ | CN[C@H]1CC[C@H](Nc2cc(Nc3ccc(F)c(Cl)c3)n3nccc3n2)CC1 [Compound 87]
++ | Fc1ccc(Nc2cc(NC3CCNCC3)nc3ccnn23)cc1Cl [Compound 88]
+++ | CCN[C@H]1CC[C@H](Nc2cc(Nc3ccc(F)c(Cl)c3)n3nccc3n2)CC1 [Compound 89]
++ | N[C@H]1CC[C@H](Nc2cc(NCc3ccccn3)n3nccc3n2)CC1 [Compound 90]
+++ | NC1CCC(Nc2cc(Nc3ccc(C(F)(F)F)cc3Cl)n3nccc3n2)CC1 (stereo not drawn) [Compound 91]
++ | NC1CCC(Nc2cc(Nc3ccccc3C(F)(F)F)n3nccc3n2)CC1 (stereo not drawn) [Compound 93]
+++ | COc1ccc(Cl)c(Nc2cc(NC3CCC(N)CC3)nc3ccnn23)c1 (stereo not drawn) [Compound 99]
+++ | NC1CCC(Nc2cc(Nc3ccccc3I)n3nccc3n2)CC1 (stereo not drawn) [Compound 101]
+++ | NC1CCC(Nc2cc(Nc3ccccc3Br)n3nccc3n2)CC1 (stereo not drawn) [Compound 102]

MAPKAP-K2 activity | Structure (SMILES)
++ | COc1ccc(Nc2cc(NC3CCC(N)CC3)nc3ccnn23)c(OC)c1OC (stereo not drawn) [Compound 103]
+++ | CCCCOc1ccc(Nc2cc(NC3CCC(N)CC3)nc3ccnn23)cc1 (stereo not drawn) [Compound 104]
+++ | NC1CCC(Nc2cc(Nc3ccc(OC(F)(F)F)cc3Cl)n3nccc3n2)CC1 (stereo not drawn) [Compound 107]
+++ | NC1CCC(Nc2cc(Nc3ccc(F)cc3Cl)n3nccc3n2)CC1 (stereo not drawn) [Compound 108]
+++ | NC1CCC(Nc2cc(Nc3c(F)cccc3F)n3nccc3n2)CC1 (stereo not drawn) [Compound 109]
++ | C#CC(C)(C)Nc1cc(NC2CCC(N)CC2)nc2ccnn12 (stereo not drawn) [Compound 111]
+++ | COc1ccc(Nc2cc(NC3CCC(N)CC3)nc3ccnn23)c(F)c1 (stereo not drawn) [Compound 112]
+++ | CC(C)Oc1ccc(Nc2cc(NC3CCC(N)CC3)nc3ccnn23)c(F)c1 (stereo not drawn) [Compound 113]
++ | COc1ccc(Nc2cc(NC3CCC(N)CC3)nc3ccnn23)c(C)c1 (stereo not drawn) [Compound 114]
++ | CCCCCNC1CCC(Nc2cc(Nc3ccc(F)c(Cl)c3)n3nccc3n2)CC1 (stereo not drawn) [Compound 125]
++ | Fc1ccc(Nc2cc(NC3CCC(NCC4CCOC4)CC3)nc3ccnn23)cc1Cl (stereo not drawn) [Compound 127]
++ | Fc1ccc(Nc2cc(NC3CCC(NCc4ccsc4)CC3)nc3ccnn23)cc1Cl (stereo not drawn) [Compound 129]
++ | Fc1ccc(Nc2cc(NC3CCC(NC4CCCCC4)CC3)nc3ccnn23)cc1Cl (stereo not drawn) [Compound 134]
++ | CC(C)NC1CCC(Nc2cc(Nc3ccc(F)c(Cl)c3)n3nccc3n2)CC1 (stereo not drawn) [Compound 135]
+ | CC(CN(C)C)N[C@H]1CC[C@H](Nc2cc(Nc3ccc(F)c(Cl)c3)n3nccc3n2)CC1 (stereo partly drawn) [Compound 137]
+++ | Fc1ccccc1Nc1cc(NC2CCCNC2)nc2ccnn12 (stereo not drawn) [Compound 141]
